Test results reported in patent US20200255478A1, “NOVEL COMPOUNDS ACTIVATING THE NRF2 PATHWAY” (Almirall, S.A., priority 2017, published 2020).
Starred links: 1 amine or outer side, 2 acyl side, 3 side chain; linkers in the order of their positions; H or OH if unused. Positions of bridges follow the written chain, without caps; N, C: chain ends. Non-standard residues stand in square brackets, D forms with d. Residues, ends and D or L forms follow the SMILES beside them. *: point of attachment. X8 = O=C([C@H](Cc1cccc([*:3])c1)N[*:1])[*:2]; mXylylene = c1cc(C[*:1])cc(C[*:2])c1; oXylylene = c1ccc(C[*:2])c(C[*:1])c1; X2 = c1ccc2cc(C[*:2])c(C[*:1])cc2c1; X6 = c1ccc2nc(C[*:2])c(C[*:1])nc2c1; Stearoyl = CCCCCCCCCCCCCCCCCC(=O)*; pXylylene = c1cc(C[*:2])ccc1C[*:1]; βAla = NCCC(=O)O

biological target: Keap1-Maltose Binding Protein (MBP tag) (Homo sapiens, UniProt Q14145); assay: Nrf2-Keap1 HTRF (TR-FRET) binding assay: displacement of biotinylated ETGE peptide from Keap1-MBP; conditions: not given
Sequence (Q14145 whole entry): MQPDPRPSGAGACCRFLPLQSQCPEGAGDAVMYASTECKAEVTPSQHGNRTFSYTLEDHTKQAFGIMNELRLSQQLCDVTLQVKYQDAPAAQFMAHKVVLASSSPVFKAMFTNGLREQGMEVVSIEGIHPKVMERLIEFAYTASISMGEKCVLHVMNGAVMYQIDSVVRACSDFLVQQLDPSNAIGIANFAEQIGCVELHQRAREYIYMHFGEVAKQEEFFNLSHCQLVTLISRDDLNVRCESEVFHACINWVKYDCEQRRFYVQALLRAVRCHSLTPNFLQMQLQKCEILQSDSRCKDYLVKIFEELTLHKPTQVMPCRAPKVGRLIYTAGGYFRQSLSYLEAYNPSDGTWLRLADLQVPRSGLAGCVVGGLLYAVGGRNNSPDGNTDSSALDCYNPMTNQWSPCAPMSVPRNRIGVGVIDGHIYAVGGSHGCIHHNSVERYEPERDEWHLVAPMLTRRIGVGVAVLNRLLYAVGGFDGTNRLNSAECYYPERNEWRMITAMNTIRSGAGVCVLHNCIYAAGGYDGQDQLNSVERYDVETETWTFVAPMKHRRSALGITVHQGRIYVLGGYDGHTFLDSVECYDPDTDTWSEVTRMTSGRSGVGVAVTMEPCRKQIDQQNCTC

SMILES | IC50
CCCCCCCCCCCCCC(=O)N[C@H]1C[C@H]2C(=O)N[C@@H](CCC(N)=O)C(=O)N[C@H]3CSCc4ccccc4CSC[C@H](NC(=O)[C@H](CCC(=O)O)NC(=O)CNC(=O)[C@H]([C@@H](C)O)NC(=O)[C@H](CCC(=O)O)NC(=O)[C@@H]4CCCN4C(=O)[C@H](CC(=O)O)NC3=O)C(=O)N[C@@H](CC(C)C)C(=O)N3CCC[C@@H]3C(=O)N2C1 [Example 80, {[&^1Pro((4S)-NH-Miristoyl)-Gln-Cys(&^2)-Asp-Pro-Glu-Thr-Gly-Glu-Cys(&^3)-Leu-D-Pro&^1][&^2(1,2-phenylenediyl)dimethylene&^3]}] | < 1 nM
CCCCCCCCCCCCCCCCCC(=O)N[C@H]1C[C@H]2C(=O)N[C@@H](CCC(N)=O)C(=O)N[C@H]3CSCc4cccc(c4)CSC[C@H](NC(=O)[C@H](CCC(=O)O)NC(=O)CNC(=O)[C@H]([C@@H](C)O)NC(=O)[C@H](CCC(=O)O)NC(=O)[C@@H]4CCCN4C(=O)[C@H](CC(=O)O)NC3=O)C(=O)N[C@@H](CC(C)C)C(=O)N3CCC[C@@H]3C(=O)N2C1 [Example 74, {[&^1Pro((4S)-NH-Stearyl)-Gln-Cys(&^2)-Asp-Pro-Glu-Thr-Gly-Glu-Cys(&^3)-Leu-D-Pro&^1][&^2(1,3-phenylenediyl)dimethylene&^3]}] | < 1 nM
CCCCCCCCCCCCCCCCCC(=O)NCCCC[C@@H]1NC(=O)[C@H]2CCCN2C(=O)[C@H](CC(C)C)NC(=O)[C@@H]2CSCc3ccccc3CSC[C@H](NC(=O)[C@H](CCC(N)=O)NC1=O)C(=O)N[C@@H](CC(=O)O)C(=O)N1CCC[C@H]1C(=O)N[C@@H](CCC(=O)O)C(=O)N[C@@H]([C@@H](C)O)C(=O)NCC(=O)N[C@@H](CCC(=O)O)C(=O)N2 [Example 91, {[&^1Lys(N^6-Stearyl)-Gln-Cys(&^2)-Asp-Pro-Glu-Thr-Gly-Glu-Cys(&^3)-Leu-D-Pro&^1][&^2(1,2-phenylenediyl)dimethylene&^3]}] | < 1 nM
CC(C)C[C@@H]1NC(=O)[C@@H]2CCCN2C(=O)[C@H](CC(C)C)NC(=O)[C@@H]2CSCc3ccc(cc3)CSC[C@H](NC(=O)[C@H](CCC(N)=O)NC1=O)C(=O)N[C@@H](CC(=O)O)C(=O)N[C@@H](CCC(=O)O)C(=O)N[C@@H](CCC(=O)O)C(=O)N[C@@H]([C@@H](C)O)C(=O)NCC(=O)N[C@@H](CCC(=O)O)C(=O)N2 [Example 5, {[&^1Leu-Gln-Cys(&^2)-Asp-Glu-Glu-Thr-Gly-Glu-Cys(&^3)-Leu-Pro&^1][&^2(1,4-phenylenediyl)dimethylene&^3]}] (cyclo(CDEETGECLPLQ); linker 1-8 via pXylylene) | 1 to 100 nM

same assay, conditions: HTRF (TR-FRET); displacement of ETGE-biotin from Keap1-MBP; values banded into grades; read-out: Binding (IC50) ETGE-Keap1

SMILES | IC50
CC(C)C[C@H](NC(=O)[C@@H]1CSCc2cccc(c2)CSC[C@H](NC(=O)[C@H](CCC(N)=O)NC(=O)[C@@H](N)CC(C)C)C(=O)N[C@@H](CC(=O)O)C(=O)N[C@@H](CCC(=O)O)C(=O)N[C@@H](CCC(=O)O)C(=O)N[C@@H]([C@@H](C)O)C(=O)NCC(=O)N[C@@H](CCC(=O)O)C(=O)N1)C(=O)N1CCC[C@H]1C(=O)NCCC(=O)N[C@@H](Cc1ccc(O)cc1)C(=O)N[C@@H](C)C(=O)N[C@@H](CCCNC(=N)N)C(=O)N[C@@H](C)C(=O)N[C@@H](C)C(=O)N[C@@H](C)C(=O)N[C@@H](CCCNC(=N)N)C(=O)N[C@@H](CCC(N)=O)C(=O)N[C@@H](C)C(=O)N[C@@H](CCCNC(=N)N)C(=O)N[C@@H](C)C(N)=O [Example 13] (H-LQCDEETGECLP[βAla]YARAAARQARA-NH2; linker 3-10 via mXylylene) | 1 to 100 nM
CCCCCCCCCCCCCCCCCC(=O)N[C@H]1C[C@H]2C(=O)N[C@@H](CCC(N)=O)C(=O)N[C@H]3CSCc4cccc(c4)CSC[C@H](NC(=O)[C@H](CCC(=O)O)NC(=O)CNC(=O)[C@H]([C@@H](C)O)NC(=O)[C@H](CCC(=O)O)NC(=O)[C@@H]4CSCN4C(=O)[C@H](CC(=O)O)NC3=O)C(=O)N[C@@H](CC(C)C)C(=O)N3CCC[C@@H]3C(=O)N2C1 [Example 96, {[&^1Pro((4S)-NH-Stearyl)-Gln-Cys(&^2)-Asp-Thz-Glu-Thr-Gly-Glu-Cys(&^3)-Leu-D-Pro&^1][&^2(1,3-phenylenediyl)dimethylene&^3]}] | < 1 nM
CCCCCCCCCCCCCCCCCC(=O)NCCC(=O)N[C@@H](CCCCN)C(=O)N[C@@H](CCC(N)=O)C(=O)N[C@H]1CSCc2ccccc2CSC[C@@H](C(=O)N[C@@H](CC(C)C)C(=O)N2CCC[C@H]2C(N)=O)NC(=O)[C@H](CCC(=O)O)NC(=O)CNC(=O)[C@H]([C@@H](C)O)NC(=O)[C@H](CCC(=O)O)NC(=O)[C@@H]2CCCN2C(=O)[C@H](CC(=O)O)NC1=O [Example 47, {[Stearyl-βAla-Lys-Gln-Cys(&^1)-Asp-Pro-Glu-Thr-Gly-Glu-Cys(&^2)-Leu-Pro-NH2][&^1(1,2-phenylenediyl)dimethylene&^2]}] | < 1 nM
CCCCCCCCCCCCCCCCCC(=O)N[C@H]1C[C@H]2C(=O)N[C@@H](CCC(N)=O)C(=O)N[C@H]3CSCC4(COC4)CSC[C@H](NC(=O)[C@H](CCC(=O)O)NC(=O)CNC(=O)[C@H]([C@@H](C)O)NC(=O)[C@H](CCC(=O)O)NC(=O)[C@@H]4CSCN4C(=O)[C@H](CC(=O)O)NC3=O)C(=O)N[C@@H](CC(C)C)C(=O)N3CCC[C@@H]3C(=O)N2C1 [Example 97, {[&^1Pro((4S)-NH-Stearyl)-Gln-Cys(&^2)-Asp-Thz-Glu-Thr-Gly-Glu-Cys(&^3)-Leu-D-Pro&^1][&^2(3,3-oxetanediyl)dimethylene&^3]}] | < 1 nM
CCCCCCCCCCCCCCCCCC(=O)NCCC(=O)N[C@@H](CC(C)C)C(=O)N[C@@H](CCC(N)=O)C(=O)N[C@H]1CSCc2cc3ccccc3cc2CSC[C@@H](C(=O)N[C@@H](CC(C)C)C(=O)N2CCC[C@H]2C(=O)O)NC(=O)[C@H](CCC(=O)O)NC(=O)CNC(=O)[C@H]([C@@H](C)O)NC(=O)[C@H](CCC(=O)O)NC(=O)[C@H](C)NC(=O)[C@H](CC(=O)O)NC1=O [Example 38, {[Stearyl-βAla-Leu-Gln-Cys(&^1)-Asp-Ala-Glu-Thr-Gly-Glu-Cys(&^2)-Leu-Pro-OH][&^1(naphthalene)2,3-diyldimethylene&^2]}] ({Stearoyl-βAla}-LQCDAETGECLP-OH; linker 3-10 via X2) | 1 to 100 nM
CC(C)C[C@H](NC(=O)[C@@H]1CSCc2cc3ccccc3cc2CSC[C@H](NC(=O)[C@H](CCC(N)=O)NC(=O)[C@@H](N)CC(C)C)C(=O)N[C@@H](CC(=O)O)C(=O)N[C@@H](C)C(=O)N[C@@H](CCC(=O)O)C(=O)N[C@@H]([C@@H](C)O)C(=O)NCC(=O)N[C@@H](CCC(=O)O)C(=O)N1)C(=O)N1CCC[C@H]1C(=O)NCCC(=O)N[C@@H](CCCNC(=N)N)C(=O)N[C@@H](CCCCN)C(=O)N[C@@H](CCCCN)C(=O)N[C@@H](CCCNC(=N)N)C(=O)N[C@@H](CCCNC(=N)N)C(=O)N[C@@H](CCC(N)=O)C(=O)N[C@@H](CCCNC(=N)N)C(=O)N[C@@H](CCCNC(=N)N)C(=O)N[C@@H](CCCNC(=N)N)C(N)=O [Example 30] | 1 to 100 nM
CC(=O)N[C@H]1CSCc2nc3ccccc3nc2CSC[C@@H](C(N)=O)NC(=O)[C@H](CCC(=O)O)NC(=O)CNC(=O)[C@H]([C@@H](C)O)NC(=O)[C@H](CCC(=O)O)NC(=O)[C@H](CCC(=O)O)NC(=O)[C@H](CC(=O)O)NC1=O [Example 26, {[Acetyl-Cys(&^1)-Asp-Glu-Glu-Thr-Gly-Glu-Cys(&^2)-NH2][&^1(quinoxaline)2,3-diyldimethylene&^2]}] (Ac-CDEETGEC-NH2; linker 1-8 via X6) | 1 to 100 nM
Cc1cc(C)c2c(C)c1CSC[C@@H](C(=O)N[C@@H](CC(C)C)C(=O)N1CCC[C@H]1C(=O)NCCC(=O)N[C@@H](CCCNC(=N)N)C(=O)N[C@@H](CCCCN)C(=O)N[C@@H](CCCCN)C(=O)N[C@@H](CCCNC(=N)N)C(=O)N[C@@H](CCCNC(=N)N)C(=O)N[C@@H](CCC(N)=O)C(=O)N[C@@H](CCCNC(=N)N)C(=O)N[C@@H](CCCNC(=N)N)C(=O)N[C@@H](CCCNC(=N)N)C(N)=O)NC(=O)[C@H](CCC(=O)O)NC(=O)CNC(=O)[C@H]([C@@H](C)O)NC(=O)[C@H](CCC(=O)O)NC(=O)[C@@H]1CCCN1C(=O)[C@H](CC(=O)O)NC(=O)[C@@H](NC(=O)[C@H](CCC(N)=O)NC(=O)[C@@H](N)CC(C)C)CSC2 [Example 67] | 1 to 100 nM
CCCCCCCCCCCCCCCCCC(=O)NCCC(=O)N[C@@H](CC(C)C)C(=O)N[C@@H](CCC(N)=O)C(=O)N[C@H]1CSCc2ccccc2CSC[C@@H](C(=O)N[C@@H](CC(C)C)C(=O)N2CCC[C@H]2C(N)=O)NC(=O)[C@H](CCC(=O)O)NC(=O)CNC(=O)[C@H]([C@@H](C)O)NC(=O)[C@H](CCC(=O)O)NC(=O)[C@@H]2CCCN2C(=O)[C@H](CC(=O)O)NC1=O [Example 48, {[Stearyl-βAla-Leu-Gln-Cys(&^1)-Asp-Pro-Glu-Thr-Gly-Glu-Cys(&^2)-Leu-Pro-NH2][&^1(1,2-phenylenediyl)dimethylene&^2]}] ({Stearoyl-βAla}-LQCDPETGECLP-NH2; linker 3-10 via oXylylene) | 1 to 100 nM
CC(=O)N[C@H]1Cc2cccc(c2)SC[C@@H](C(N)=O)NC(=O)[C@H](CCC(=O)O)NC(=O)CNC(=O)[C@H]([C@@H](C)O)NC(=O)[C@H](CCC(=O)O)NC(=O)[C@H](CCC(=O)O)NC(=O)[C@H](CC(=O)O)NC1=O [Example 22, Acetyl-Phe(m-&^1)-Asp-Glu-Glu-Thr-Gly-Glu-Cys(&^1)-NH2] (Ac-[X8]DEETGEC-NH2; thioether 1-8) | 1 to 100 nM
CC(C)C[C@H](NC(=O)[C@@H]1CSCc2cccc(c2)CSC[C@H](NC(=O)[C@H](CCC(N)=O)NC(=O)[C@@H](N)CC(C)C)C(=O)N[C@@H](CC(=O)O)C(=O)N[C@@H](CCC(=O)O)C(=O)N[C@@H](CCC(=O)O)C(=O)N[C@@H]([C@@H](C)O)C(=O)NCC(=O)N[C@@H](CCC(=O)O)C(=O)N1)C(=O)N1CCC[C@H]1C(=O)O [Example 3, {[H-Leu-Gln-Cys(&^1)-Asp-Glu-Glu-Thr-Gly-Glu-Cys(&^2)-Leu-Pro-OH][&^1(1,3-phenylenediyl)dimethylene&^2]}] (H-LQCDEETGECLP-OH; linker 3-10 via mXylylene) | 1 to 100 nM
CCCCCCCCCCCCCCCCCC(=O)NCCC(=O)N[C@H]1CSCc2ccccc2CSC[C@@H](C(N)=O)NC(=O)[C@H](CCC(=O)O)NC(=O)CNC(=O)[C@H]([C@@H](C)O)NC(=O)[C@H](CCC(=O)O)NC(=O)[C@H](C)NC(=O)[C@H](CC(=O)O)NC1=O [Example 28, {[Stearyl-βAla-Cys(&^1)-Asp-Ala-Glu-Thr-Gly-Glu-Cys(&^2)-NH2][&^1(1,2-phenylenediyl)dimethylene&^2]}] | 1 to 100 nM
